Patent US10526316B2, “Quinoxaline and pyridopyrazine derivatives as PI3Kβ inhibitors” (Janssen Pharmaceutica NV, priority 2015, dated 2020)
Counter-ions that a name gives are not always drawn. Like-named read-outs stand apart in the source and are kept apart here.

Tests used:
PI3Kβ = target: T1, PI3Kβ (Homo sapiens, UniProt P42338); experiment: Enzyme binding assay (KINOMEscan, DiscoveRx); details: PIK3Cβ_h, read-out: Kd PIK3Cβ_h
T1 construct: purchased DiscoveRx Corporation, San Diego (contract service, KINOMEscan)
Summary of the method: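 Kinase binding affinities were measured with KINOMEscan technology. Results are given as Kd, the inhibitor binding constant, in nM.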

kinase enzymes [1] = target: T2, kinase enzymes (Homo sapiens, UniProt P48736); experiment: Enzyme binding assay (KINOMEscan, DiscoveRx), further kinases of Table A; details: PIK3Cγ_h
T2 construct: purchased DiscoveRx Corporation, San Diego (contract service, KINOMEscan)
Summary of the method: (§1)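 Binding affinities were measured on the KINOMEscan platform.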

kinase enzymes [2] = target: T3, kinase enzymes (Homo sapiens, UniProt P42336); experiment: as above; details: PIK3Cα_h
T3 construct: purchased DiscoveRx Corporation, San Diego (contract service, KINOMEscan)
Summary of the method: as §1

kinase enzymes [3] = target: T4, kinase enzymes (Homo sapiens, UniProt P42345); experiment: as above; details: MTOR_h
T4 construct: purchased DiscoveRx Corporation, San Diego (contract service, KINOMEscan)
Summary of the method: as §1

PI3Kδ = target: T5, PI3Kδ (Homo sapiens, UniProt O00329); experiment: Enzyme binding assay (KINOMEscan, DiscoveRx); details: PIK3Cδ_h
T5 construct: purchased DiscoveRx Corporation, San Diego (contract service, KINOMEscan)
T5 sequence (O00329 1-1044): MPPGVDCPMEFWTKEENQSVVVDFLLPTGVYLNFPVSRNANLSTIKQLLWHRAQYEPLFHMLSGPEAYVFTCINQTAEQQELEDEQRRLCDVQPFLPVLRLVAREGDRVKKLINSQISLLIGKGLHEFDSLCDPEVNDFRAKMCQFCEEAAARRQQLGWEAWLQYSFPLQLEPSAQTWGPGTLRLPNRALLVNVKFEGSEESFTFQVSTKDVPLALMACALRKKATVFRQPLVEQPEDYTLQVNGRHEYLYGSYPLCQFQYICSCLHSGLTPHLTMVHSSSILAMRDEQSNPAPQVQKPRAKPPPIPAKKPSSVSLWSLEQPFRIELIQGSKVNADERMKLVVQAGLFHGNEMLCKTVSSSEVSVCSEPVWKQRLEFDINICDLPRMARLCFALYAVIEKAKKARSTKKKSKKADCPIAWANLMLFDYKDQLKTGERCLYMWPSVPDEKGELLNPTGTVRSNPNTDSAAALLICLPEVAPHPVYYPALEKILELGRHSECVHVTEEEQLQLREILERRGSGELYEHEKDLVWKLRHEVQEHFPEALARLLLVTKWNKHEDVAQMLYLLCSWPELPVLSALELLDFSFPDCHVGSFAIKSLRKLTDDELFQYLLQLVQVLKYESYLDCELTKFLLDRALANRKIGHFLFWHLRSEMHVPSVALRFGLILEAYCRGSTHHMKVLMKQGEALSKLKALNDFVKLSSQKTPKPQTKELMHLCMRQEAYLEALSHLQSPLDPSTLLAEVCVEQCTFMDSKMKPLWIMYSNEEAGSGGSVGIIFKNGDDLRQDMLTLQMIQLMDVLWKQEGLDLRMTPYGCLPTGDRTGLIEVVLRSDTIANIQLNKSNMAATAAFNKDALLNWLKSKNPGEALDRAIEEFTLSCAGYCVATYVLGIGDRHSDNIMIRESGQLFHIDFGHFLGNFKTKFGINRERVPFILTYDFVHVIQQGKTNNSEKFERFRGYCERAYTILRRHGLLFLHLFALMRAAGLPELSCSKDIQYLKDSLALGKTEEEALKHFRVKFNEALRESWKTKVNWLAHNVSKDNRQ
Summary of the method: as §1

[4] = system: Akt phosphorylated at Thr308 in PC-3 cells; experiment: Cellular assay: phosphorylation of Akt at Thr308 in PC-3 cells (MSD ELISA); format: cell-based; details: PC-3 cells, 60 min compound incubation, MSD ELISA, read-out: IC50 pAkt_Thr308
Summary of the method: (§2)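 Electrochemiluminescent sandwich ELISA read-out: phospho-specific capture (Ser473 or Thr308), Sulfo-tag anti-total Akt detection, signal proportional to phospho-Akt. Cells treated 60 min at 37° C with compound, DMSO 0.3%. IC50 fitted from five concentrations.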

[5] = system: Akt phosphorylated at Ser473 in PC-3 cells; experiment: Cellular assay: phosphorylation of Akt at Ser473 in PC-3 cells (MSD ELISA); format: cell-based; details: PC-3 cells, 60 min compound incubation, MSD ELISA, read-out: IC50 pAkt_S473
Summary of the method: as §2

T1 sequence (P42338 whole entry): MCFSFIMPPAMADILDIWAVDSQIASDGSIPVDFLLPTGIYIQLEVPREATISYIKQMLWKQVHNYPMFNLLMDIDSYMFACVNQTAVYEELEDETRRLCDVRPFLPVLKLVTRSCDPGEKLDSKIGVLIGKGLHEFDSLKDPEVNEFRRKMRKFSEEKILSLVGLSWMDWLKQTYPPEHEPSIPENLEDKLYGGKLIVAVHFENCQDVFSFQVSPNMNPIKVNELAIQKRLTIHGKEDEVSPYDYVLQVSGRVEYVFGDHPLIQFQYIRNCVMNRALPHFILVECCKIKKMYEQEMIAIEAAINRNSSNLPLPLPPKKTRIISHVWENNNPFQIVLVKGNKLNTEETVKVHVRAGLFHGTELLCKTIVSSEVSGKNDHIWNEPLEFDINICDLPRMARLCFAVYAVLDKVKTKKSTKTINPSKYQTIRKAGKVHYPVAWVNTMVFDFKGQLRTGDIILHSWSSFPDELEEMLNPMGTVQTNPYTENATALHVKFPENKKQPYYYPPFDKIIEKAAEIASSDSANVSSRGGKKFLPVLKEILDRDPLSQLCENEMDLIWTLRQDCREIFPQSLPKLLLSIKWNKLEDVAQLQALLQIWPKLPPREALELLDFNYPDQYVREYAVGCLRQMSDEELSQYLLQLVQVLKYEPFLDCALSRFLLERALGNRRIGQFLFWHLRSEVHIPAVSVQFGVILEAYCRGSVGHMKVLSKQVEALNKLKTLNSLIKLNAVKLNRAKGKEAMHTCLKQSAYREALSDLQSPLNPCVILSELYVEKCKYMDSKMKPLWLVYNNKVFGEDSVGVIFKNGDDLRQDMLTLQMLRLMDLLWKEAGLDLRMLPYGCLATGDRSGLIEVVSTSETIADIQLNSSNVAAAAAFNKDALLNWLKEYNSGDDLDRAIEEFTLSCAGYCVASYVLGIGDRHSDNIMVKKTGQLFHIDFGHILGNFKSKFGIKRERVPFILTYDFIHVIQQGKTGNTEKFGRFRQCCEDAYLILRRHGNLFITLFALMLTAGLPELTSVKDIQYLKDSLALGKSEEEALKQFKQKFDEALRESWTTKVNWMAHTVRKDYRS
T3 sequence (P42336 whole entry): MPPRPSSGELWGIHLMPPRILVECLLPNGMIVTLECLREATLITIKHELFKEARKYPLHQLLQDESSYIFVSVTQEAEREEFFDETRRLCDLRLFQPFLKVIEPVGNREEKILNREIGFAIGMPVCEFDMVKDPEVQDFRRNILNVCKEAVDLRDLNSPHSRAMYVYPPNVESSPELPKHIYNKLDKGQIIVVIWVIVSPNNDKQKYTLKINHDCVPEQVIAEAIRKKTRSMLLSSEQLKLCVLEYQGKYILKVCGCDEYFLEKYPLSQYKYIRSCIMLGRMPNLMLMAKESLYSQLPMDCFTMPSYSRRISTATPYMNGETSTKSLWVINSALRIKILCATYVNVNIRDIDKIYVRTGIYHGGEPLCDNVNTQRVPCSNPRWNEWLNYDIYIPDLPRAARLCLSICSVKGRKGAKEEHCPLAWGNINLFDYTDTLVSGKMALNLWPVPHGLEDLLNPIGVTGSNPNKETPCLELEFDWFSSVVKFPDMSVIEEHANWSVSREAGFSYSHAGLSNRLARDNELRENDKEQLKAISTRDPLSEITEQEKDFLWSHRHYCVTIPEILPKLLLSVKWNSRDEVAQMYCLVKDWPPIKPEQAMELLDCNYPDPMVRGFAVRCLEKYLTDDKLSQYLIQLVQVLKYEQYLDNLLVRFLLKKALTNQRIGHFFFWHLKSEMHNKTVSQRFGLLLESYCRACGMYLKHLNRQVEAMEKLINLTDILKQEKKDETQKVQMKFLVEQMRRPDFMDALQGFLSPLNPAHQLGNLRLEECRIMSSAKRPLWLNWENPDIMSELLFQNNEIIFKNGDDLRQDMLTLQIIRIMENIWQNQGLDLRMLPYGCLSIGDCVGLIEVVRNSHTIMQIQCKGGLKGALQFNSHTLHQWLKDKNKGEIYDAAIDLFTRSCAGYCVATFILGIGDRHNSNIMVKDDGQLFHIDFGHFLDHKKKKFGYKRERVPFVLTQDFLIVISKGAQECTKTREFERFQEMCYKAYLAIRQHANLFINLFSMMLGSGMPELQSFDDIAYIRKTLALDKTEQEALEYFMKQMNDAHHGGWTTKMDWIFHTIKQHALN
T2 sequence (P48736 whole entry): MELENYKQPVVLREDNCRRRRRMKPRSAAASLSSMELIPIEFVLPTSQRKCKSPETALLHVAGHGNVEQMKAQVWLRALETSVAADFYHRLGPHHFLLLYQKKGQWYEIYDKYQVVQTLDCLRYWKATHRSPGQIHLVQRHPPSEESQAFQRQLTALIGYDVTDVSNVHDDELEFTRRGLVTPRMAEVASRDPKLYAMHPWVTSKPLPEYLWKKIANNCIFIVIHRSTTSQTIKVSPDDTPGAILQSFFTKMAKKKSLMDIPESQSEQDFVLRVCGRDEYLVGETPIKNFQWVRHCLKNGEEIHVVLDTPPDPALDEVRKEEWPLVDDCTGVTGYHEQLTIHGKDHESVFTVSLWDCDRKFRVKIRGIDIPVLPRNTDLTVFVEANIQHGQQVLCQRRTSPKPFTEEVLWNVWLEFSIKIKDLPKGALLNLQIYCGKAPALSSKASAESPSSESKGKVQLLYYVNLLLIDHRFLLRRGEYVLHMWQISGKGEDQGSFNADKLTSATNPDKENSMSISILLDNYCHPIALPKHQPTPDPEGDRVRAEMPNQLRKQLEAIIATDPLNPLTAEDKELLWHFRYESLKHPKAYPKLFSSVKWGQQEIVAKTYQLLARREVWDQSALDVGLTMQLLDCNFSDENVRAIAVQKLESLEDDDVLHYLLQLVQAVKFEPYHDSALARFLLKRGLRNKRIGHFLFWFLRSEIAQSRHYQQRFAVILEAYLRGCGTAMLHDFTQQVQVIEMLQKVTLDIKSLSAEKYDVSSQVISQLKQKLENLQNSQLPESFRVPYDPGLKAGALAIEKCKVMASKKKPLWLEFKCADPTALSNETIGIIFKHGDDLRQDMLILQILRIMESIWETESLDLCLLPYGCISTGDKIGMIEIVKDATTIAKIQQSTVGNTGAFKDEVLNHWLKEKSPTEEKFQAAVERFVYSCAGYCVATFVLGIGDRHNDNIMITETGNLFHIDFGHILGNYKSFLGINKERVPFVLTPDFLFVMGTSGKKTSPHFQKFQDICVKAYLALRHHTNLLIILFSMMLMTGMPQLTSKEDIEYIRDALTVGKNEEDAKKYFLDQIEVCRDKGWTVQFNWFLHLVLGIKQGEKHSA

Compound	Kd (PI3Kβ) [nM]	melting point [°C]	Kd (kinase enzymes [1]) [nM]	Kd (kinase enzymes [2]) [nM]	Kd (kinase enzymes [3]) [nM]	Kd (PI3Kδ) [nM]	IC50 ([4]; Homo sapiens, PC-3, 1 h) [nM]	IC50 ([5]; Homo sapiens, PC-3, 1 h) [nM]	IC50 [4] [nM]	IC50 [5] [nM]
CC(Nc1cc(F)cc(F)c1)c1cc(C(=O)NC[C@H](C)O)cc2ncc(N3CCOCC3)nc12 (single isomer, unassigned) [Compound 246b]	16600	75	6170	> 30200	> 30200	> 30200				
COC(=O)c1cc(C(C)Nc2cc(F)c(F)c(F)c2)c2nc(N3CCOCC3)cnc2c1 (stereo not shown) [Compound 266]		220								
COC(=O)c1cc(C(C)Nc2cccc(F)c2)c2nc(N3CCOCC3)cnc2c1 (single isomer, unassigned) [Compound 262a]	1780	199.7	> 30200	> 30200	> 30200	24500				
C[C@@H](Nc1cc(F)cc(F)c1)c1cc(C(=O)NCCN(C)C)cc2ncc(N3CCOCC3)nc12 (as salt: HCl) [Compound 184a]		80								
CC(C)NCCNC(=O)c1cc(C(C)Nc2cc(F)c(F)c(F)c2)c2nc(N3CCOCC3)cnc2c1 (single isomer, unassigned) [Compound 283b]	1380	170	29500	> 30200	> 30200	18200				
COC1CN(Cc2cc(C(C)Nc3cc(F)cc(F)c3)c3nc(N4CCOCC4)cnc3c2)CC1OC (single isomer, unassigned) (as salt: hydrochloride) [Compound 205]		80								
CC(Nc1cc(F)cc(F)c1)c1cc(CN2CCO[C@H](CO)C2)cc2ncc(N3CCOCC3)nc12 (single isomer, unassigned) (as salt: HCl) [Compound 194]		80								
CC(Nc1cc(F)cc(F)c1)c1cc(CNCC(F)(F)F)cc2ncc(N3CCOCC3)nc12 (single isomer, unassigned) (as salt: HCl) (hydrate or solvate) [Compound 163]		239								
CC1CN(C(=O)c2cc(C3CCCN3c3cc(F)cc(F)c3)c3nc(N4CCOCC4)cnc3c2)CC(C)N1 (stereo not shown) [Compound 39]		80								
C[C@@H](Nc1cc(F)cc(F)c1)c1cc(C(=O)NCCN(C)C)cc2ncc(N3CCOCC3)nc12 (as salt: sulfonic acid salt) [Compound 184c]		74								
CC(Nc1cc(F)cc(F)c1)c1cc(CN2CCO[C@@H](CO)C2)cc2ncc(N3CCOCC3)nc12 (single isomer, unassigned) (as salt: HCl) [Compound 193]		80								
CC1CN(c2cnc3cc(C(=O)N(C)C)cc(C4CCCN4c4cc(F)cc(F)c4)c3n2)CCO1 (stereo not shown) [Compound 36]	2		1590	224	15800	107	5	10		
CC(Nc1cccc(F)c1)c1cc(CO)cc2ncc(N3CCOCC3)nc12 (stereo not shown) [Compound 100]	1		1740	1290	14100	295	68	145		
Fc1cc(F)cc(N2CCCC2c2cncc3ncc(N4CCOCC4)nc23)c1 (stereo not shown) [Compound 23]	1		724	324	15100	331	42	~68		
CN(C)C(=O)c1cc(CNc2cc(F)cc(F)c2)c2nc(N3CCOCC3)cnc2c1 [Compound 332]	15		21400	2950	> 30200	4270	112	~316		
Cc1c(F)cccc1NCc1cc(C(=O)NCCO)cc2ncc(N3CCOCC3)nc12 [Compound 381]	26		8320	3550	> 30200	3800	117	209		
CC(Nc1cc(F)cc(F)c1)c1cc(C(=O)N2CCC(NCC(F)(F)F)C2)cc2ncc(N3CCOCC3)nc12 (stereo not shown) [Compound 217]	4		24000	2140	> 30200	1290	49	79		
CNCCN(C)C(=O)c1cc(C(C)Nc2cc(F)cc(F)c2)c2nc(N3CCOCC3)cnc2c1 (single isomer, unassigned) [Compound 152]	10		8710	3980	> 30200	1820			87	62
CNCC1CCN(C(=O)c2cc(C(C)Nc3cc(F)cc(F)c3)c3nc(N4CCOCC4)cnc3c2)CC1 (stereo not shown) [Compound 176]	1		3470	2000	> 30200	102	15	16		
C[C@@H](Nc1cc(F)cc(F)c1)c1cc(C(=O)NCCN(C)C)cc2ncc(N3CCOCC3)nc12 (as salt: sulfuric acid salt) [Compound 184b]		270								
CNCCNC(=O)c1cc([C@H](C)Oc2cccc(F)c2)c2nc(N3CCOCC3)cnc2c1 [Compound 123]	91		12600	9330	16600	2240	> 513	> 513		

Second part, the molecule after the results:

Kd (PI3Kβ) [nM]	melting point [°C]	Kd (kinase enzymes [1]) [nM]	Kd (kinase enzymes [2]) [nM]	Kd (kinase enzymes [3]) [nM]	Kd (PI3Kδ) [nM]	IC50 ([4]; Homo sapiens, PC-3, 1 h) [nM]	IC50 ([5]; Homo sapiens, PC-3, 1 h) [nM]	IC50 [4] [nM]	IC50 [5] [nM]	Compound
1320	144	14100	10700	> 30200	11500					CC(Nc1ccc(F)c(F)c1)c1cc(C(=O)NC2CCNC2)cc2ncc(N3CCOCC3)nc12 (stereo not shown) [Compound 325a]
3	127	4270	1440	26300	331					[2H]C([2H])(O)C([2H])([2H])NC(=O)c1cc(C(C)Nc2cccc(F)c2)c2nc(N3CCOCC3)cnc2c1 (single isomer, unassigned) [Compound 408a]
21	80	14100	3980	20400	2820					CCOC(=O)CNC(=O)c1cc(C(C)Nc2cccc(F)c2)c2nc(N3CCOCC3)cnc2c1 (stereo not shown) [Compound 392a]
339	105	3800	4370	> 30200	2950					Cc1ccc(NC(C)c2cc(C(=O)NCCN(C)C)cc3ncc(N4CCOCC4)nc23)cc1F (single isomer, unassigned) [Compound 407b]
324	123	8130	23400	> 30200	17400					[2H]C([2H])(O)C([2H])([2H])NC(=O)c1cc(C(C)Nc2cccc(F)c2)c2nc(N3CCOCC3)cnc2c1 (single isomer, unassigned) [Compound 408b]
166	128	> 30200	18600	> 30200	7410					CC(Nc1cccc(F)c1)c1cc(C(=O)N2CC[C@@H](O)C2)cc2ncc(N3CCOCC3)nc12 (single isomer, unassigned) [Compound 321b]
2		> 30200	9770	> 30200	813	22	~29			CNCCN(C)C(=O)c1cc(C(C)Oc2cc(F)c(F)c(F)c2)c2nc(N3CCOCC3)cnc2c1 (stereo not shown) [Compound 379a]
